From paper PMC9050848, “Carbamoyl-N-aryl-imine-urea: a new framework to obtain a putative leishmanicidal drug-candidate” (RSC Advances, 2020)
Where two headings read alike, the source gives them in different places.

How the values were obtained:
[1] = tested on: J774.A1 cell lines (macrophages); assay: Cytotoxicity against J774.A1 macrophages, MTT assay; format: cell-based, murine (BALB/c); details: Mus musculus, read-out: IC50 (concentration required to give 50% death of cells)
Experimental: Initially the cytotoxic profile of compounds 9a–e and 10a–e against J774.A1 cell lines (i.e., BALB/c macrophage cell lines) was investigated. Therefore, these cells were exposed to different concentrations (0.1–100 μM) of compounds 9a–e and 10a–e and the cytotoxic effect was measured after 48 h of drug incubation, by using MTT-based assay. The cytotoxicity was expressed as IC50 values (that means the concentration of a drug that kills half of the tested cells in culture). As depicted in Table 1, most compounds have shown low cytotoxic activity with IC50 > 100 μM.
These adherent-phenotype macrophage lines were cultured in Dulbecco's Modified Eagle's medium (DMEM, Sigma) supplemented with 10% FBS at 37 °C with 95% humidity and 5% CO2.
To evaluate the cytotoxic activity against the J774.A1 cell line, the host cells were plated in 96-well cell culture plate (flat bottom, clear, Corning) at 2 × 10^5 cells per well in complete culture medium 10% FBS at 37 °C. After 1 h wells were washed with warm Hank's Balanced Salt solution (HBSS) to remove non-adherent cells, leaving approximately 10^5 adherent macrophages. All cultures were done in DMEM complete supplemented with 10% FBS. The compounds and pentamidine were added at serial concentrations (0.1–100 μM). The cells were also cultured with medium free from compounds or vehicle (basal growth control) or in media with DMSO 0.1% (vehicle control). Positive control (dead cells) was obtained by cellular lysis with 1% of Triton 100× in DMEM complete (because it is a detergent in this concentration, Triton 100× destabilizes the cell membrane of macrophages, causing cell death). The cytotoxicity was evaluated by the MTT assay.[31] This assay consists of indirectly measuring cell viability through the mitochondrial enzymatic activity of macrophages. Viable cells are capable of reducing MTT to formazan. For this, after the incubation of plate for 48 h, 100 μL of MTT solution (0.5 mg mL^−1, in DMEM medium) was added per well, and the plate was incubated for 1 h. Then, the supernatant of each well was retired and was added 150 μL of DMSO. The absorbance was determined at 570 nm in a microplate reader. The cell viability of the cultures treated with the compounds was compared to the death pattern obtained in the control cultures. In the positive control, the cell death was confirmed when the optical density was equal to zero, confirming that the cells were not viable. Data obtained from experiments were expressed as the mean ± standard error of the mean (mean ± S.E.M.) and statistical differences between the treated and the vehicle groups of experiments were evaluated by ANOVA and Dunnett hoc tests.

[2] = tested on: L. amazonensis intracellular amastigotes; assay: Leishmanicidal activity against intracellular amastigote forms of L. amazonensis in J774.A1 macrophages; format: cell-based; details: for Effect on the number of intracellular amastigotes: L. amazonensis, screening concentration 30 μM; for IC50 / Emax: Leishmania amazonensis; for IC50: read-out: IC50 (concentration required to give 50% death of parasites); for Emax: maximum toxicity vs 0.1% DMSO group, read-out: Maximum effect (% ± S.E.M.)
Experimental: Considering that L. amazonensis is one of the causative species of cutaneous leishmaniasis in Brazil,[20] we have investigated the leishmanicidal effect of compounds 9a–e and 10a–e against L. amazonensis amastigotes forms. Initially, all compounds were evaluated at 30 μM. […] Then, they were selected to determine their IC50 value for intracellular amastigote forms of L. amazonensis.
(§1) Promastigotes of L. amazonensis (MHOM/BR/77/LTB0016) were obtained from Dr Eduardo Caio Torres dos Santos at Oswaldo Cruz Institute – Fiocruz. Promastigotes of L. braziliensis (MHOM/BR/01/BA788) were obtained from Dr Valéria de Matos Borges at Gonçalo Moniz Research Center – Fiocruz. The parasites were maintained in vitro in Schneider's medium, supplemented with 10% FBS and 2% human urine at 27 °C in BOD incubator.
(§2) Initially, compounds 9a–e and 10a–e were evaluated at screening concentration of 30 μM against L. amazonensis, using DMSO 0.03% as vehicle control, since this was the DMSO concentration (vehicle) remaining in each well with the tested compounds. […] Vehicle control used was DMSO 0.1%, since this was the concentration of DMSO (vehicle) existing in each well with the tested substances in the highest concentration used.
(§3) To assess the activity of the test derivatives against the amastigote stage of L. amazonensis and L. braziliensis the model of infection in coverglass was realized.[31] The murine macrophages (J774.A1 cell line) were prepared in 24-well cell culture plate (flat bottom, clear, Corning) at 2 × 10^5 adherent cells per well, infected with 2 × 10^6 promastigotes in glass coverslips placed inside 1 mL medium culture. The cultures were cultured or not with the test derivatives or reference drugs, and kept for 24 h at 37 °C, 5% CO2. After 24 h of incubation, the coverslips were washed, stained with Giemsa–May–Grünwald, and intracellular amastigotes were counted in 100 macrophages, using an optical microscope, on the objective of 100×. Thus, during the counting of 100 macrophages, the amount of amastigotes present within these defence cells was also determined. Data obtained from in vitro experiments were expressed as the mean ± S.E.M. of duplicate cultures of representative assays. Statistical differences between the treated and the control groups were evaluated by ANOVA and Dunnett hoc tests. Differences with a p value < 0.05 or lower were considered significant.

[3] = tested on: L. braziliensis intracellular amastigotes; assay: Leishmanicidal activity against intracellular amastigote forms of L. braziliensis in J774.A1 macrophages; format: cell-based; details: Leishmania braziliensis; for IC50: read-out: IC50 (concentration required to give 50% death of parasites); for Emax: maximum toxicity vs 0.1% DMSO group, read-out: Maximum effect (% ± S.E.M.)
Description: Further, the leishmanicidal activity against intracellular amastigotes forms of L. braziliensis were also investigated (Table 2).
as §1, §2, §3

L. amazonensis = assay: Murine model of cutaneous leishmaniasis induced by L. amazonensis (efficacy); format: in vivo, BALB/c mice; details: 30 μmol per kg per day × 28 days
Experimental: So, BALB/c mice infected with L. amazonensis were treated during 28 days with compound 10e (30 μmol per kg per day, i.p.) or with the standards miltefosine (30 μmol per kg per day, p.o.) and meglumine antimoniate (30 μmol per kg per day, i.p.).
(§4) This study (protocol number 2013.02) was approved by the Ethics Committee for Animal Experimentation of the Federal University of Alagoas (Brazil). All animals received humane care in compliance with the ‘Principles of laboratory animal care’ formulated by the National Society for Medical Research and the ‘Guide for the care and use of laboratory animals’ prepared by the National Academy of Sciences (Washington, DC). Then, 1 × 10^5 stationary promastigotes (5 days of culture in Schneider's medium) of L. amazonensis were inoculated subcutaneously into the right ear dermis of 6 week-old female BALB/c mice weighing ca. 20 g. and later treated with 10e (i.p.), miltefosine (p.o.) or meglumine antimoniate (i.p.) at 30 μmol kg^−1 × 28 days. The vehicle to solubilize 10e (LASSBio-1736) and standard drugs was Tween 20 (50 μL) and sterile water for injection, which was also administrated by i.p. route in two controls groups (non-infected control and infected control). The lesion size was measured using a paquimeter.[32] The parasite loads of infected ears and draining lymph nodes were determined using a quantitative limiting-dilution assay.[33] Toxicity was also evaluated due to alterations on spleen weight and by biochemistry dosages in plasma, performed according to the manufacturer's instructions (Doles, BRA). Data obtained from experiments were expressed as the mean ± S.E.M. and statistical differences between the treated and the vehicle groups of experiments were evaluated by ANOVA and Dunnett hoc tests.

[4] = Toxicity in treated infected mice (survival, spleen weight, serum biochemistry); format: in vivo; details: infected BALB/c mice, 30 μmol kg−1 daily for 28 days, n = 5
Experimental: The survival of BALB/c mice infected with L. amazonensis untreated and treated during 28 days with the daily dose of 30 μmol kg^−1 with meglumine antimoniate, miltefosine and 10e (LASSBio-1736) was analyzed. Animal mortality was not observed for the groups treated with 10e and miltefosine, while 20% of death was identified from the 25th day of treatment with meglumine antimoniate (Fig. 11). After the end of treatment, the animal's toxicity was investigated looking for any alterations on spleen weight and on alanine aminotransferase (ALT), aspartate aminotransferase (AST), creatinine (CREA) and urea serum levels.
as §4

[5] = J774.A1 macrophages, 48 h incubation, MTT, 0.1–100 μM
[6] = L. amazonensis amastigotes, ratio of IC50 values
[7] = J774.A1, L. amazonensis intracellular amastigotes, 24 h
[8] = J774.A1, L. amazonensis intracellular amastigotes
[9] = J774.A1, L. braziliensis intracellular amastigotes, 24 h
[10] = J774.A1, L. braziliensis intracellular amastigotes

## O=C(N/N=C/c1ccc([N+](=O)[O-])o1)NNC(=O)c1ccc(Cl)cc1 [LASSBio-1491 (9a), 4-chloro-phenylcarbamoyl-N-5-nitrofuranimine-urea]
[1]; [5]
  IC50: > 100 µM

## O=C(N/N=C/c1ccc([N+](=O)[O-])o1)NNC(=O)c1ccc(Cl)cc1Cl [LASSBio-1703 (10a), 2,4-dichloro-phenylcarbamoyl-N-5-nitrofuranimine-urea]
[1]; [5]
  IC50: > 100 µM

## O=C(N/N=C/c1ccccc1O)NNC(=O)c1ccc(Cl)cc1 [LASSBio-1704 (9b), 4-chloro-phenylcarbamoyl-N-2-hydroxyphenylimine-urea]
[1]; [5]
  IC50: > 100 µM
[2]; [6]
  Times less potent than miltefosine: ~4.0 times
  Times less potent than pentamidine: about 2.5 times
[2]
  Effect on the number of intracellular amastigotes: decreased the number of intracellular amastigotes
[2]; [7]
  IC50: 85.3 ± 5 µM
[2]; [8]
  Emax: 55.6 ± 1.4%
[3]; [9]
  IC50: > 100 µM
[3]; [10]
  Emax: 48.1 ± 4.5%

## O=C(N/N=C/c1ccccc1O)NNC(=O)c1ccc(Cl)cc1Cl [LASSBio-1705 (10b), 2,4-dichloro-phenylcarbamoyl-N-2-hydroxyphenylimine-urea]
[1]; [5]
  IC50: 78.1 ± 4.5 µM

## O=C(N/N=C/c1ccc(O)cc1)NNC(=O)c1ccc(Cl)cc1 [LASSBio-1706 (9d), 4-chloro-phenylcarbamoyl-N-4-hydroxyphenylimine-urea]
[1]; [5]
  IC50: 86.2 ± 8.7 µM
[2]
  Effect on the number of intracellular amastigotes: decreased the number of intracellular amastigotes
[2]; [7]
  IC50: > 100 µM
[3]; [9]
  IC50: 3.6 ± 0.6 µM
[3]; [10]
  Emax: 70.4 ± 1.9%

## O=C(N/N=C/c1ccc(O)cc1)NNC(=O)c1ccc(Cl)cc1Cl [LASSBio-1707 (10d), 2,4-dichloro-phenylcarbamoyl-N-4-hydroxyphenylimine-urea]
[1]; [5]
  IC50: > 100 µM
[2]
  Effect on the number of intracellular amastigotes: decreased the number of intracellular amastigotes
[2]; [7]
  IC50: > 100 µM
[2]; [8]
  Emax: 44.4 ± 0.2%
[3]; [9]
  IC50: > 100 µM

## O=C(N/N=C/c1cccc(O)c1)NNC(=O)c1ccc(Cl)cc1Cl [LASSBio-1708 (10c), 2,4-dichloro-phenylcarbamoyl-N-3-hydroxyphenylimine-urea]
[1]; [5]
  IC50: > 100 µM
[2]
  Effect on the number of intracellular amastigotes: decreased the number of intracellular amastigotes
[2]; [7]
  IC50: > 100 µM
[2]; [8]
  Emax: 31 ± 1.7%
[3]; [9]
  IC50: > 100 µM

## O=C(N/N=C/c1cccc(O)c1)NNC(=O)c1ccc(Cl)cc1 [LASSBio-1709 (9c), 4-chloro-phenylcarbamoyl-N-3-hydroxyphenylimine-urea]
[1]; [5]
  IC50: 85.2 ± 2.3 µM

## O=C(N/N=C/c1ccc(C(F)(F)F)cc1)NNC(=O)c1ccc(Cl)cc1 [LASSBio-1737 (9e)]
[1]; [5]
  IC50: > 100 µM

## CCCCCCCCCCCCCCCCOP(=O)([O-])OCC[N+](C)(C)C [Miltefosine, reference compound]
[1]; J774.A1, 48 h
  IC50: > 100 µM
[2]; J774.A1, 24 h
  IC50: 22 ± 1.8 µM
[2]; [8]
  Emax: 58.1 ± 4.9%
[3]; J774.A1, 24 h
  IC50: 32.1 ± 1.1 µM
[3]; [10]
  Emax: 84 ± 1.5%
L. amazonensis
  Appearance of lesions on the first day after end of treatment (photographs): complete healing of the nodules and ulcers
L. amazonensis; 10e and meglumine antimoniate i.p., miltefosine p.o.
  Lesion sizes of infected ear: reduced the lesion sizes of infected ear
L. amazonensis; limiting-dilution assay
  Parasite load in infected ear: decreased parasite load in infected ear
[4]
  Animal mortality: not observed

## N=C(N)c1ccc(OCCCCCOc2ccc(C(=N)N)cc2)cc1 [Pentamidine, reference compound]
[1]; [5]
  IC50: 35.5 ± 3.4 µM
[2]; [7]
  IC50: 32.8 ± 4.6 µM
[2]; [8]
  Emax: 59.1 ± 5.6%
[3]; [9]
  IC50: 78.4 ± 4.7 µM
[3]; [10]
  Emax: 61.7 ± 2.2%

## meglumine antimoniate [reference compound]
L. amazonensis
  Appearance of lesions on the first day after end of treatment (photographs): the lesions showed an intense swelling and ulcerated
[4]
  Animal mortality: 20%
